# Assay results taken from patent publication US20240148679A1, “METHODS AND COMPOSITIONS RELATED TO TREATMENT AND PREVENTION OF CANCER BY INHIBITION OF DGAT1 AND DGAT2” (Ohio State Innovation Foundation, priority 2019, published 2024).
# Entries after “also recorded” stand apart in the source; their conditions may differ.
# Experiments:
# [1] = test system: GBM cells (U251); test: Mitochondrial morphology (TEM, MitoTracker Red); assay type: cell-based, human; conditions: inhibitor 24 hours
# Experimental: (A, B) Transmission electron microscopy (TEM) analysis of the mitochondrial morphology in GBM cells (U251) treated with the DGAT1 inhibitor A-922500 (20 μg/ml) or DGAT2 inhibitor PF-06424439 (20 μg/ml) for 24 hr and shown in a or infected with shRNA-expressing lentivirus against DGAT1 for 48 hr and shown in b. Scale bar, 500 nm. Mitochondria are indicated by red arrows. Mitochondria length and loss of cristae (%) were quantified by ImageJ over 100 mitochondria in each group (mean±SEM). Statistical significance was determined by one-way ANOVA. * P<0.0001. (C, D) Representative fluorescence images of LDs (green) and mitochondria (red) in U251 cells treated with DGAT1 or DGAT2 inhibitor and shown in c or shRNA in (D) as in panels (A, B). […] The percentage of cells with tubular or fragmented mitochondria was quantified by ImageJ in more than 100 cells (mean±SEM). Statistical significance was determined by one-way ANOVA. * P<0.001. […] Lower panels show the quantification of relative basal and maximal OCR change (details please see Methods). […] Basal OCR was determined as OCR before oligomycin subtract OCR after rotenone addition, and maximal OCR was determined as OCR after FCCP subtract OCR after rotenone addition. Statistical significance was determined by one-way ANOVA. * P<0.0001. […] ROS were detected with CellROX Deep Red, and mitochondria were stained with MitoTracker Green. […]
# [2] = Toxicity in treated mice (H&E of organs, body weight); assay type: in vivo; conditions: 120 mg/kg/day; for toxic effects in mouse liver, kidney and spleen (H&E staining): 13 days
# Experimental: (A) The H&E staining of the liver, kidney and spleen of mice treated with the DGAT1 inhibitor A922500 (120 mg/kg/day, oral gavage) for 13 days. Scale bar, 50 μm. (B) The body weight of mice treated with vehicle or DGAT1 inhibitor A-922500 (120 mg/kg/day, oral gavage) for 13 days. The mice with DGAT1i treatment lost 8% weight at day 13 treatment compared with the mice weight at day 1.
# Paraffin tissue sections were deparaffinized in xylene and rehydrated in degraded ethanol (100%, 95% and 70% ethanol), respectively. After washing with dH2O, slides were stained with hematoxylin and eosin solution in sequence followed by washing with dH2O. Then slides were dehydrated in degraded ethanol and immersed in xylene followed by mounting in Permount.
# Intracranial xenograft models were generated using female athymic nude (NCr-nu/nu) mice (6-8 weeks of age obtained from OSU Target Validation Shared Resource). U87EGFRvIII (1×10^6) cells infected with shDGAT1-, shDGAT2- or scramble shRNA-expressing lentivirus for 48 hr (suspended in 100 μl PBS) were implanted into mice flank to generate subcutaneous model. For intracranial xenograft model, U87EGFRvIII-luc (1×10^5) or GBM30-luc (1×10^5) cells infected with shDGAT1-, shDGAT2- or scramble shRNA-expressing lentivirus for 48 hours (suspended in 5 μl PBS) were implanted into mouse brains. Mice were observed until they became moribund, at which point they were sacrificed. For drug treatment, U87EGFRvIII (1×10^6 cells suspended in 100 μl PBS) or GBM30 cells (4×10^6 suspended in 100 μl PBS and then mixed with 100 μl matrigel) were implanted in mouse flanks. DGAT1 inhibitor A-922500 (120 mg/kg/day, oral gavage) was formulated by 1% Tween 80 in PBS and administrated to mice when tumor size reached approximately 80 mm^3.
# [3] = test system: GBM cells; test: GBM cell death, trypan blue counting; assay type: cell-based, human; conditions: single inhibitor, 3 days
structure (smiles),measurement,setting,value
O=C(Nc1ccccc1)Nc1ccc(-c2ccc(C(=O)[C@@H]3CCC[C@H]3C(=O)O)cc2)cc1 [A-922500],structure of mitochondria,[1],severely disrupted
same,mice weight decrease,"[2]; after 13 days, in comparison with vehicle control group",about 8%
same,toxicity in treated mice (overall),[2]; oral gavage,does not induce noticeable toxic effects; also recorded: no obvious toxicity was observed
same,"toxic effects in mouse liver, kidney and spleen (H&E staining)",[2]; oral gavage,did not observe any toxic effects
same,"toxic effects in mouse liver, kidney and spleen (H&E staining)","[2]; oral gavage, listed as A922500",no obvious toxic effects
same,body weight loss,"[2]; oral gavage, day 13 compared with day 1",8%
same,GBM cell death,[3],greatly induced marked GBM cell death
